Results as given in patent US20070027080A1, “Method for treatment of vitiligo” (priority 2005, published 2007).

Experiments:
fast spreading vitiligo = assay: Clinical trial: disease activity (arrest of spread) of fast spreading vitiligo, OMP of beta methasone with or without the peptide; assay type: in vivo, human
Source text: (§1) That this happens was shown in a clinical trial on human volunteers. The above twin objectives were accomplished. FIG. 2a describes two vitiligo patches at the start of treatment of oral steroids, while 2b describes the same patches at the end of 3 months of treatment with oral steroids while at the same time bFGF peptide(s) lotion was applied locally once a day on the lower vitiligo patch for the duration of intake of oral steroids. […] The arrest of the fast spread of the disease was accomplished to the same extent of 88% at the end of 6 months of treatment with oral steroids and the result was not altered by the local application of bFGF peptide(s) lotion (See table 3 for more details)

[1] = system: vitiligo patches of volunteers; assay: Clinical trial: repigmentation of vitiligo patches, OMP of beta methasone with or without local application of the peptide; assay type: in vivo, human
Source text: as §1
At the end of 3 months of combinatorial treatment with steroids and local application of bFGF peptide(s) lotion more than 3 fold more patients got pigmented to a marked extent than with steroid alone (See Table 4 for more details). The percentage of volunteers who had moderate and marked rate of repigmentation with combinatorial therapy at the end of three months of treatment is twice than with the steroid therapy alone.

## C[C@H]1C[C@H]2[C@@H]3CCC4=CC(=O)C=C[C@]4(C)[C@@]3(F)[C@@H](O)C[C@]2(C)[C@@]1(O)C(=O)CO [OMP Alone, beta methasone]
Fast spreading vitiligo; At 3 months
  No. of patients where the disease was arrested with time: 12
  Percentage of patients where the disease was arrested: 75%
Fast spreading vitiligo; At 6 months
  No. of patients where the disease was arrested with time: 14
  Percentage of patients where the disease was arrested: 87.50%
Fast spreading vitiligo; At 6 months, listed as oral steroids
  Percentage of patients where the disease was arrested: 88%
[1]; At 3 months
  Marked repigmentation, % of volunteers: 12.5%
  Marked repigmentation, number of volunteers: 2
  Minimal repigmentation, % of volunteers: 68.75%
  Minimal repigmentation, number of volunteers: 11
  Moderate repigmentation, % of volunteers: 18.75%
  Moderate repigmentation, number of volunteers: 3
[1]; At 6 months
  Marked repigmentation, % of volunteers: 25%
  Marked repigmentation, number of volunteers: 4
  Minimal repigmentation, % of volunteers: 50%
  Minimal repigmentation, number of volunteers: 8
  Moderate repigmentation, % of volunteers: 25%
  Moderate repigmentation, number of volunteers: 4
